Measured values as given in patent US6511961B1, “Cyclic peptides and medicinal use thereof” (Toray Industries, Inc., priority 1997, dated 2003).
Read-outs that look alike come from different tables or passages of the source. Each block holds one compound with its values, some of them ahead of it. Bridge positions count the residues as written; N and C are the ends. Square brackets hold non-standard residues; d marks the D form. Peptide text beside a SMILES is read from it. 2Nal = N[C@@H](Cc1ccc2ccccc2c1)C(=O)O; Met(O2) = CS(=O)(=O)CC[C@H](N)C(=O)O; 2Pal = N[C@@H](Cc1ccccn1)C(=O)O; Tic = O=C(O)[C@@H]1Cc2ccccc2CN1; Chg = N[C@H](C(=O)O)C1CCCCC1

Columns and labels:
[1] = 20-membered ring
[2] = Stability in mouse serum; type: in vitro ADME
[3] = biological target: VLA-4-IgG chimeric protein (Homo sapiens, UniProt P05556+P13612); assay: Inhibition of binding of CS-1 peptide and VLA-4-IgG chimeric protein; conditions: binding of immobilized CS-1 peptide and VLA-4-IgG chimeric protein, absorbance at 490 nm
Excerpt: As the method for investigating the adhesion inhibiting activity in terms of VLA-4, there can be used an adhesion measuring system for cells such as Ramos cells and Jurkat cells, and fibronectin or a fibronectin fragment, for example a peptide consisting of the CS-1 sequence (Gly Pro Glu Ile Leu Asp Val Pro Ser Thr SEQ ID NO:59) [hereinafter referred to as the CS-1 peptide], immobilized on an immunoplate. Furthermore, as another method, there can be used a binding measurement system for VLA-4 protein and fibronectin or a fibronectin fragment, for example the CS-1 peptide, immobilized on an immunoplate or the like. In the present invention, it is preferred that the inhibiting activity of a compound be evaluated in a binding measurement system for a VLA-4 and immunoglobulin chimeric protein (VLA-4-IgG chimeric protein) and a peptide containing the CS-1 sequence (WO98/032771), but there is no restriction thereto. Reference here to VLA-4-IgG chimeric protein means a heterodimer complex molecule formed when a VLA-4 α4 and immunoglobulin chimeric protein (referred to hereinafter as the VLAα4.IgG chimeric protein) and a VLA-4 β1 and immunoglobulin chimeric protein (referred to hereinafter as the VLAβ1.IgG chimeric protein) undergo association. Moreover, for the immunoglobulin, there can be used heavy or light chains of IgG, IgM or the like, and in the present invention IgG1 heavy chains were used. When observing the cyclic peptide inhibition effect, it is best to use a previously prepared mixture of the α4.IgG heavy chain-β1.IgG heavy chain chimeric protein heterodimer complex and the test material.
Cyclic peptide inhibiting effect in terms of the binding of CS-1 peptide and VLA-4-IgG chimeric protein.
A conjugate of the peptide containing the CS-1 sequence shown in SEQ ID NO:57 and rabbit IgG (Sigma) was prepared in accordance with the literature (Humphries, M. J. et al, J. Biol. Chem., 262, 6886-6892 (1987)). This was diluted with PBS(−), and 100 μl/well quantities introduced into a 96 well immunoplate (NUNC), after which this was left to stand for 16 hours at 4° C. and the CS-1 peptide immobilized.
Gys Lue His Gly Pro Glu Ile Leu Asp Val Pro Ser Thr (SEQ ID NO:57)
Next, after washing the interior of the wells twice with PBS(−), 300 μl/well quantities of 1% BSA-PBS solution which had been heat treated for 10 minutes at 80° C. were introduced, then left for 3 hours at 4° C., after which the solution inside the wells was removed by suction.
Each cyclic peptide and VLA-4-IgG chimeric protein (100 μl) were reacted together beforehand for 20 minutes at room temperature, and then reaction carried out for 3 hours at 30° C. with the CS-1 peptide. Subsequently, the non-bonded VLA-4-IgG chimeric protein was removed by suction, and washed away twice with TBS buffer (150 mM NaCl, 25 mM Tris-HCl, 1 mM MnCl2 pH 7.4) containing 0.1% BSA. To the bonded VLA-4-IgG chimeric protein, biotin labelled anti-human IgG antibody (Vector) as the first antibody was added, and then avidin labelled horseradish peroxidase (Sigma) was added as the second antibody and reaction carried out. Following the reaction, o-phenylenediamine was added as a substrate and colour development effected, and then the absorbance measured at 490 nm. From this absorbance, the binding inhibition activity due to the respective peptides was determined.

[4] = disulfide bond, K3[Fe(CN)6]/NH3 pH 7.5-8, water
[5] = amide bond, with chain assembly

VLA-4-IgG chimeric protein, sequence (P13612 34-1032, change not shown): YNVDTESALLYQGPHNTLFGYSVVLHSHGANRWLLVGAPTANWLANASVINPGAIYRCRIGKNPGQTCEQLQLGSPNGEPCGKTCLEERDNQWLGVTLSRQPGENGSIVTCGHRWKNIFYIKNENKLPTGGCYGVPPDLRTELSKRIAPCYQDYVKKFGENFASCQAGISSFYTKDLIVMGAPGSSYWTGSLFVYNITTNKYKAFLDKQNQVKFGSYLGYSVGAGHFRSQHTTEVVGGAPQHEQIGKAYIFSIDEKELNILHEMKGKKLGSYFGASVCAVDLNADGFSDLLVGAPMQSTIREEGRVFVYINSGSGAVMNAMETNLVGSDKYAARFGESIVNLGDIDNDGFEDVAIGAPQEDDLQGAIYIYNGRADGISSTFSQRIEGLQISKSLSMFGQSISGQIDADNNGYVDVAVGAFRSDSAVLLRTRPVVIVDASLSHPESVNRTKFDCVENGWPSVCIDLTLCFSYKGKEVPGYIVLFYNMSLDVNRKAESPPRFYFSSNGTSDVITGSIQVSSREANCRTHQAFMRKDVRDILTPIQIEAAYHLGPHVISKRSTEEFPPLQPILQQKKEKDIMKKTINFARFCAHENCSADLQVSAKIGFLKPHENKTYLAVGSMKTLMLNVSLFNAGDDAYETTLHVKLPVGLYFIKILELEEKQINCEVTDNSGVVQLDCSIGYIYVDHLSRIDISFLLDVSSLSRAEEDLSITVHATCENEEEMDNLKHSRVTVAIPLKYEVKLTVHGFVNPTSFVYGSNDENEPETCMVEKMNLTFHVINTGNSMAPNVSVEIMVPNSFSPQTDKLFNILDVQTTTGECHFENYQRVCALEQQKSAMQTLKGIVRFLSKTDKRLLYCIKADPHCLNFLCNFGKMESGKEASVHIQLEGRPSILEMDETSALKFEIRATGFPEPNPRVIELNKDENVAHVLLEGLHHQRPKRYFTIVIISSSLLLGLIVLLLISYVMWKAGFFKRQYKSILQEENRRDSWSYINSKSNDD
VLA-4-IgG chimeric protein, sequence (P05556 21-798, change not shown): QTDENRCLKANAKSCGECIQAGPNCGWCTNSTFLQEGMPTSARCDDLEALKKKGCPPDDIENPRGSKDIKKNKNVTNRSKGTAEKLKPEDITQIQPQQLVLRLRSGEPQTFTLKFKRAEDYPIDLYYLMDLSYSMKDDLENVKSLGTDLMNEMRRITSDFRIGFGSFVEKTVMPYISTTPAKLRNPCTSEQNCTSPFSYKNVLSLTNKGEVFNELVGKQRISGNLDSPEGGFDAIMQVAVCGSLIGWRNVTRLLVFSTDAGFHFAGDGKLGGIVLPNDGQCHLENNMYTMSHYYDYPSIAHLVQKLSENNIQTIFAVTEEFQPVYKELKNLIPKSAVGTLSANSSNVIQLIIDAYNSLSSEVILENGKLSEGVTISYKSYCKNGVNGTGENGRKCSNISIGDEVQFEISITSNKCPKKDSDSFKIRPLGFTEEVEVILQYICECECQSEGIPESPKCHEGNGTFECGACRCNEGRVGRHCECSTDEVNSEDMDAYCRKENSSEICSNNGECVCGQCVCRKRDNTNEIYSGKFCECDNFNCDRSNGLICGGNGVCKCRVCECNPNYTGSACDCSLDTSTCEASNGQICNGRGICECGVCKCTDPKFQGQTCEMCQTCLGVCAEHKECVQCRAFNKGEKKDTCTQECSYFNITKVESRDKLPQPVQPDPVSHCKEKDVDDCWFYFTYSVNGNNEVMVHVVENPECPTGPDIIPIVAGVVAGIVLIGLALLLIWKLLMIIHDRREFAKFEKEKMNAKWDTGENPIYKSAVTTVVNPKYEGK

Compound: CC(C)C[C@@H]1NC(=O)[C@H](Cc2c[nH]cn2)NC(=O)[C@H](CC(=O)O)NC(=O)[C@H](C(C)C)NC(=O)[C@@H](N)CSSC[C@@H](C(=O)O)NC1=O [C*VDHLC*]
- ring closure, yield after HPLC ([1]; from H-Cys(Acm)-Val-Asp-His-Leu-Cys(Acm)-OH, disulfide bond, AgOTf/anisole/TFA, then DMSO/HCl, 50% DMSO-1N HCl, 2 steps): 75%

Compound: CC[C@@H](C)[C@H]1NC(=O)[C@@H](N)CSSC[C@@H](C(=O)O)NC(=O)[C@H](CC(C)C)NC(=O)[C@H](Cc2c[nH]cn2)NC(=O)[C@H](CC(=O)O)NC1=O [C*dIDHLC*]
- ring closure, yield after HPLC ([1]; from H-Cys(Acm)-dIle-Asp-His-Leu-Cys(Acm)-OH, disulfide bond, AgOTf/anisole/TFA, then DMSO/HCl, 50% DMSO-1N HCl, 2 steps): 72%

Compound: CC(C)C[C@@H]1NC(=O)[C@H](CO)NC(=O)[C@H](CC(=O)O)NC(=O)[C@@H](CC(C)C)NC(=O)[C@@H](N)CSSC[C@@H](C(=O)O)NC1=O [C*dLDSLC*]
- ring closure, yield after HPLC ([1]; from H-Cys(Acm)-dLeu-Asp-Ser-Leu-Cys(Acm)-OH, disulfide bond, AgOTf/anisole/TFA, then DMSO/HCl, 50% DMSO-1N HCl, 2 steps): 77%

Compound: CC(C)C[C@@H]1NC(=O)[C@@H](CO)NC(=O)[C@H](CC(=O)O)NC(=O)[C@@H](CC(C)C)NC(=O)[C@@H](N)CSSC[C@@H](C(=O)O)NC1=O [C*dLDdSLC*]
- ring closure, yield after HPLC ([1]; from H-Cys(Acm)-dLeu-Asp-dSer-Leu-Cys(Acm)-OH, disulfide bond, AgOTf/anisole/TFA, then DMSO/HCl, 50% DMSO-1N HCl, 2 steps): 62%

Compound: CC(C)C[C@@H]1NC(=O)[C@H](Cc2c[nH]cn2)NC(=O)[C@H](CC(=O)O)NC(=O)[C@@H](c2ccccc2)NC(=O)[C@@H](N)CSSC[C@@H](C(=O)O)NC1=O [C*dPhgDHLC*]
- ring closure, yield after HPLC ([1]; from H-Cys(Acm)-dPhg-Asp-His-Leu-Cys(Acm)-OH, disulfide bond, AgOTf/anisole/TFA, then DMSO/HCl, 50% DMSO-1N HCl, 2 steps): 55%

Compound: CC[C@H](C)[C@@H]1NC(=O)CCSSC[C@@H](C(=O)O)NC(=O)[C@H](CC(C)C)NC(=O)[C@H](Cc2c[nH]cn2)NC(=O)[C@H](CC(=O)O)NC1=O [Mpr*IDHLC*]
- ring closure, yield after HPLC ([1]; from Mpr(Acm)-Ile-Asp-His-Leu-Cys(Acm)-OH, disulfide bond, AgOTf/anisole/TFA, then DMSO/HCl, 50% DMSO-1N HCl, 2 steps): 33%

Compound: CC[C@H](C)[C@@H]1NC(=O)[C@@H](N)C(C)(C)SSC[C@@H](C(=O)O)NC(=O)[C@H](CC(C)C)NC(=O)[C@H](Cc2c[nH]cn2)NC(=O)[C@H](CC(=O)O)NC1=O [Pen*IDHLC*]
- ring closure, yield after HPLC ([1]; from H-Pen(Acm)-Ile-Asp-His-Leu-Cys(Acm)-OH, disulfide bond, AgOTf/anisole/TFA, then DMSO/HCl, 50% DMSO-1N HCl, 2 steps): 30%

- stability in mouse serum [2]: stable for 24 hours
Compound: CC[C@H](C)[C@@H]1NC(=O)[C@@H](N)CSSC[C@@H](C(=O)O)NC(=O)[C@H](CC(C)C)NC(=O)[C@H](Cc2c[nH]cn2)NC(=O)[C@H](CCS(C)(=O)=O)NC1=O [Sequence Number 17, C*IMet(O2)HLC*] (H-CI[Met(O2)]HLC-OH; disulfide 1-6; N-terminus and C-terminus assumed)

- IC50 [3]: 1200 nM
Compound: CC[C@H](C)[C@@H]1NC(=O)[C@@H](N)CSSC[C@@H](C(=O)O)NC(=O)[C@H](CC(C)C)NC(=O)[C@H](Cc2c[nH]cn2)NC(=O)[C@H](CC(=O)O)NC1=O [compound 4] (H-CIDHLC-OH; disulfide 1-6)

- IC50 [3]: 1600 nM
Compound: CC[C@H](C)[C@@H]1NC(=O)[C@@H](N)CSSC[C@@H](C(=O)O)NC(=O)[C@H](CC(C)C)NC(=O)[C@H](Cc2c[nH]cn2)NC(=O)[C@H](CCC(=O)O)NC1=O [compound 9] (H-CIEHLC-OH; disulfide 1-6)

- IC50 [3]: 800 nM
Compound: CC[C@H](C)[C@@H]1NC(=O)[C@@H](N)CSSC[C@@H](C(=O)O)NC(=O)[C@H](CC(C)C)NC(=O)[C@H](Cc2c[nH]cn2)NC(=O)[C@H](CCS(C)(=O)=O)NC1=O [compound 17] (H-CI[Met(O2)]HLC-OH; disulfide 1-6)

- IC50 [3]: 120 nM
Compound: CC(C)C[C@@H]1NC(=O)[C@H](Cc2c[nH]cn2)NC(=O)[C@H](CC(=O)O)NC(=O)[C@H](C2CCCCC2)NC(=O)[C@@H](N)CSSC[C@@H](C(=O)O)NC1=O [compound 22] (H-C[Chg]DHLC-OH; disulfide 1-6)

- IC50 [3]: 650 nM
Compound: CC(C)C[C@@H]1NC(=O)[C@H](Cc2c[nH]cn2)NC(=O)[C@H](CC(=O)O)NC(=O)[C@@H]2Cc3ccccc3CN2C(=O)[C@@H](N)CSSC[C@@H](C(=O)O)NC1=O [compound 25] (H-C[Tic]DHLC-OH; disulfide 1-6)

- IC50 [3]: 500 nM
Compound: CC[C@H](C)[C@@H]1NC(=O)[C@@H](N)CSSC[C@@H](C(=O)O)NC(=O)[C@H](CC(C)C)NC(=O)[C@H](Cc2ccccn2)NC(=O)[C@H](CC(=O)O)NC1=O [compound 29] (H-CID[2Pal]LC-OH; disulfide 1-6)

- IC50 [3]: 450 nM
Compound: CC[C@H](C)[C@@H]1NC(=O)[C@@H](N)CSSC[C@@H](C(=O)O)NC(=O)[C@H](CC(C)C)NC(=O)[C@H](Cc2c[nH]c3ccccc23)NC(=O)[C@H](CC(=O)O)NC1=O [compound 31] (H-CIDWLC-OH; disulfide 1-6)

- IC50 [3]: 600 nM
Compound: CC[C@H](C)[C@@H]1NC(=O)[C@@H](N)CSSC[C@@H](C(=O)O)NC(=O)[C@H](CC(C)C)NC(=O)[C@H](Cc2ccc3ccccc3c2)NC(=O)[C@H](CC(=O)O)NC1=O [compound 34] (H-CID[2Nal]LC-OH; disulfide 1-6; N-terminus and C-terminus assumed)

- IC50 [3]: 250 nM
Compound: CC[C@H](C)[C@@H]1NC(=O)[C@H](Cc2ccccc2)NC(=O)[C@H](CC(=O)O)NC(=O)[C@H]([C@@H](C)CC)NC(=O)[C@@H](N)CSSC[C@@H](C(=O)O)NC1=O [compound 48] (H-CIDFIC-OH; disulfide 1-6)

Compound: CC[C@H](C)[C@@H]1NC(=O)[C@H](N)CSSC[C@@H](C(=O)O)NC(=O)[C@H](CC(C)C)NC(=O)[C@H](Cc2c[nH]cn2)NC(=O)[C@H](CC(=O)O)NC1=O [dC*IDHLC*]
- ring closure, yield after HPLC ([1]; from H-dCys(Acm)-Ile-Asp-His-Leu-Cys(Acm)-OH, disulfide bond, AgOTf/anisole/TFA, then DMSO/HCl, 50% DMSO-1N HCl, 2 steps): 39%

Compound: C*IDSLC*
- ring closure, yield after HPLC [1, 4]: 62%

Compound: C*IDTLC*
- ring closure, yield after HPLC [1, 4]: 70%

Compound: C*IDYLC*
- ring closure, yield after HPLC ([1]; disulfide bond, K3[Fe(CN)6]/NH3 pH 7.5-8, water, 0.43 mM): 61%

Compound: D(CO—)ChgMet(O2)PhgLDpr(NH—)
- ring closure, yield after HPLC [1, 5]: 7%

Compound: D(CO—)ChgMet(O2)dPhgLDpr(NH—)
- ring closure, yield after HPLC [1, 5]: 10%
